Experimental findings from patent US9925398B2, “Angiogenic peptide” (NOVACELL TECHNOLOGY INC., priority 2008, dated 2018) are described below.

Where a SMILES comes first, the peptide text is derived from it. [ ]: non-standard residue; d: D form.

The first test relates to MS-1 cells. Description: Suppression of SFKLRY-NH2-induced [Ca2+]i increase in MS-1 cells by inhibitors. It is filed as cell-based, murine. The settings on record: 100 ng/mL for 2 h prior to SFKLRY-NH2. On the procedure:
FIGS. 3A-3B show BAPTA, U73122 and PTX suppressed SFKLRY-NH2-induced [Ca^2+]i increase in MS-1 cells. […] (A) The cells were pre-incubated in DMEM containing 10 μM BAPTA-AM with Fluo-4/AM for 30 min at 37° C. Cells were suspended in Ca^2+-free Locke's solution containing 0.2 mM EGTA and treated with indicated concentrations of SFKLRY-NH2 (SEQ ID NO: 2). The change in fluorescence intensity was determined with excitation at 488 nm and the emission at 520 nm. (B) Cells were preincubated with or without U73122 (10 μM), U73433 (10 μM) for 30 min, and PTX (100 ng/mL) for 2 h with Fura-2, respectively. Fura-2-loaded cells were then suspended in Ca^2+-free Locke's solution and then treated with 1 μM SFKLRY-NH2 (SEQ ID NO: 2). The data are represent means±3 independent experiments each performed in triplicate. *P<0.05.
Consider Pertussis toxin [PTX], for which the “effect on peptide-dependent intracellular Ca2+ mobilization” value is given as “remarkably attenuated”.

Staying with this test, now noted: 10 μM preloading; Ca2+-free Locke's solution with 0.2 mM EGTA.
Turning to `CC(=O)OCOC(=O)CN(CC(=O)OCOC(C)=O)c1ccccc1OCCOc1ccccc1N(CC(=O)OCOC(C)=O)CC(=O)OCOC(C)=O` [BAPTA-AM, 1,2-bis(2-aminophenoxy)ethane-N,N,N′,N′-tetraacetoxymethyl ester], the “effect on peptide-induced [Ca2+]i increase” value was “completely abolished”.

The test is the same for the next values; noted with them: 10 μM, 30 min preincubation; 1 μM SFKLRY-NH2.
In the case of `COc1ccc2c(c1)CC[C@@H]1[C@@H]2CC[C@]2(C)[C@@H](NCCCCCCN3C(=O)C=CC3=O)CC[C@@H]12` [U73122], the “effect on peptide-induced intracellular calcium mobilization” value is listed as “completely abolished”. Same read-out and setting: the entry for `COc1ccc2c(c1)CC[C@@H]1[C@@H]2CC[C@]2(C)[C@@H](NCCCCCCN3C(=O)CCC3=O)CC[C@@H]12` [U73433] is “little inhibitory effect”.

The next test concerns Rat aortic explants. Description: Aortic ring assay (vessel sprouting ex vivo). It counts as cell-based. The conditions noted are these: 50 ng/mL co-treatment with SFKLRY-NH2 1 μM; 7 days. How it is done:
The method developed by Nicosia and Ottinetti in In Vitro Cell Dev Biol 26 (1990), pp. 119-128 was used with some modifications. Aortas were harvested from 6-week-old Sprague-Dawley rats. After removing the surrounding fibro-adipose tissues, the rings were immersed in Matrigel in wells within culture dishes. The aortic rings were cultured (5% CO2, 37° C.) in serum-free M199 containing SFKLRY-NH2 (SEQ ID NO: 2), S1P, FYSRLK-NH2, or VEGF in the presence or absence of PTX or U73122. On day 7, sprouting from aortic explants was measured.
To address whether SFKLRY-NH2 (SEQ ID NO: 2) plays a role in sprouting of vascular endothelial cells ex vivo, aortic rings were analyzed in the presence of various stimuli including 1 μM SFKLRY-NH2 (SEQ ID NO: 2), 10 ng/mL VEGF, 10 nM S1P, and 10% FBS. […] Rat aortic explants in Matrigel were incubated with M-199 harboring SFKLRY-NH2 (SEQ ID NO: 2) (1 μM), FYSRLK-NH2 (1 μM), S1P (10 nM), VEGF (10 ng/mL), SFKLRY-NH2 (SEQ ID NO: 2) (1 μM) with U73122 (10 μM) or PTX (50 ng/mL), or 10% FBS and photographed after incubation for 7 days. Three independent experiments were then conducted, each in duplicate.
In the case of Pertussis toxin [PTX], the “effect on vessel sprouting promoted by SFKLRY-NH2” value is on record as “markedly attenuated”.

The same test, now with this note: 10 μM co-treatment with SFKLRY-NH2 1 μM; 7 days.
Turning to `COc1ccc2c(c1)CC[C@@H]1[C@@H]2CC[C@]2(C)[C@@H](NCCCCCCN3C(=O)C=CC3=O)CC[C@@H]12` [U73122], the “effect on vessel sprouting promoted by SFKLRY-NH2” value is listed as “markedly attenuated”.

In the next test the test system is MS-1 cells. Description: [Ca2+]i mobilization assay in MS-1 cells. It is filed as cell-based, murine. The conditions noted are these: three experiments, read-out: Mean EC50 (μM), dose-dependent changes in intracellular Ca2+. On the procedure:
Cells were incubated with 4 μM Fura-2 AM and 250 μM sulfinpyrazone in serum-free DMEM medium at 37° C. for 30 min with continuous stirring. The cells were then washed with Locke's solution (M. Faehling, et al., FASEB J 16 (2002), pp. 1805-1807) and diluted to 2×10^6 cells/mL. 50 μL aliquots of cell suspension were added to each well of a 96-well plate, and the change in fluorescence ratio was determined at dual excitation wavelengths of 340 and 380 nm and emission wavelength of 500 nm following addition of peptides. Plates were read immediately following the addition of peptide pools, resulting in a time delay of approximately 5 s between peptide addition and detection by the FLEXstation (Molecular Devices). Negative and positive controls were run simultaneously with test samples to ensure that all samples were subjected to identical conditions. The calibration of the fluorescence ratio in terms of [Ca^2+]i was performed according to Grynkiewicz et al. J Biol Chem 260 (1985), pp. 3440-3450.
To identify peptides that stimulate intracellular calcium mobilization in murine endothelial cells (MS-1 cells), the inventors screened 114 pools of C-terminally amidated synthetic hexapeptides.
For the compound `CC(C)C[C@H](NC(=O)[C@H](CCCCN)NC(=O)[C@H](Cc1ccccc1)NC(=O)[C@@H](N)CO)C(=O)N[C@@H](CCCNC(=N)N)C(=O)N[C@@H](Cc1ccc(O)cc1)C(=O)O` [SEQ ID NO 1, SFKLRY-COOH] (H-SFKLRY-OH; N-terminus assumed), the EC50 is greater than 10 µM. The same measure, in the same setting: the value for `CC(C)C[C@H](NC(=O)[C@H](CCCCN)NC(=O)[C@H](Cc1ccccc1)NC(=O)[C@@H](N)CO)C(=O)N[C@@H](CCCNC(=N)N)C(=O)N[C@@H](Cc1ccc(O)cc1)C(N)=O` [SEQ ID NO 2, SFKLRY-NH2] (H-SFKLRY-NH2; N-terminus assumed) was 1.21 µM.

For `CC(C)C[C@H](NC(=O)[C@H](CCCCN)NC(=O)[C@H](Cc1ccccc1)NC(=O)[C@@H](N)CO)C(=O)N[C@H](CCCNC(=N)N)C(=O)N[C@@H](Cc1ccc(O)cc1)C(N)=O` [SEQ ID NO 7, SFKLrY-NH2(d-form)] (H-SFKL[dR]Y-NH2; N-terminus assumed), the EC50 is greater than 100 µM. Consider `CC(C)C[C@H](NC(=O)[C@H](CCCCN)NC(=O)[C@H](Cc1ccccc1)NC(=O)[C@@H](N)CO)C(=O)N[C@@H](CCCNC(=N)N)C(=O)N[C@H](Cc1ccc(O)cc1)C(N)=O` [SEQ ID NO 8, SFKLRy-NH2(d-form)] (H-SFKLR[dY]-NH2; N-terminus assumed), for which the EC50 was determined as 1.14 µM.

For `CC(C)C[C@H](NC(=O)[C@H](CCCCN)NC(=O)[C@H](Cc1ccccc1)NC(=O)[C@@H](N)CO)C(=O)N[C@@H](CCCNC(=N)N)C(N)=O` [SEQ ID NO 12, SFKLR-NH2] (H-SFKLR-NH2; N-terminus assumed), the EC50 was 6.19 µM. Same read-out and setting: the figure for `CC(C)C[C@H](NC(=O)[C@H](CCCCN)NC(=O)[C@H](Cc1ccccc1)NC(=O)[C@@H](N)CO)C(N)=O` [SEQ ID NO 13, SFKL-NH2] (H-SFKL-NH2; N-terminus assumed) is greater than 50 µM. As for `CC(C)C[C@H](NC(=O)[C@H](CCCNC(=N)N)NC(=O)[C@H](Cc1ccccc1)NC(=O)[C@@H](N)CO)C(=O)N[C@@H](CCCNC(=N)N)C(=O)N[C@@H](Cc1ccc(O)cc1)C(N)=O` [SEQ ID NO 15, SFRLRY-NH2] (H-SFRLRY-NH2; N-terminus assumed), the EC50 came to 0.97 µM. The same measure, in the same setting: the figure for `CC(C)C[C@H](NC(=O)[C@H](CCCCN)NC(=O)[C@H](Cc1ccccc1)NC(=O)[C@@H](N)CO)C(=O)N[C@@H](CCCNC(=N)N)C(=O)N[C@@H](CCCNC(=N)N)C(N)=O` [SEQ ID NO 16, SFKLRR-NH2] (H-SFKLRR-NH2; N-terminus assumed) is 2.66 µM; for `CC[C@H](C)[C@H](NC(=O)[C@H](Cc1ccccc1)NC(=O)[C@@H](N)CO)C(=O)N[C@@H](CC(C)C)C(=O)N[C@@H](CCCNC(=N)N)C(=O)N[C@@H](Cc1ccc(O)cc1)C(N)=O` [SEQ ID NO 17, SFILRY-NH2] (H-SFILRY-NH2; N-terminus assumed) it is 0.99 µM; for `CC[C@H](C)[C@H](NC(=O)[C@H](Cc1ccccc1)NC(=O)[C@@H](N)CO)C(=O)N[C@@H](CC(C)C)C(=O)N[C@@H](CCCNC(=N)N)C(=O)N[C@@H](CCCNC(=N)N)C(N)=O` [SEQ ID NO 18, SFILRR-NH2] (H-SFILRR-NH2; N-terminus assumed) it is 0.97 µM. On the same count and under the same terms, the figure for `CC(C)C[C@H](NC(=O)[C@H](CCCCN)NC(=O)[C@H](Cc1ccccc1)NC(=O)[C@@H](N)CO)C(=O)N[C@@H](CCCNC(=N)N)C(=O)N[C@@H](Cc1c[nH]c2ccccc12)C(N)=O` [SEQ ID NO 19, SFKLRW-NH2] (H-SFKLRW-NH2; N-terminus assumed) is 2.37 µM; for `CC[C@H](C)[C@H](NC(=O)[C@H](Cc1ccccc1)NC(=O)[C@@H](N)CO)C(=O)N[C@@H](CC(C)C)C(=O)N[C@@H](CCCNC(=N)N)C(=O)N[C@@H](Cc1c[nH]c2ccccc12)C(N)=O` [SEQ ID NO 20, SFILRW-NH2] (H-SFILRW-NH2; N-terminus assumed) it is 1.98 µM. In the case of `CC(C)C[C@H](NC(=O)[C@H](CCCCN)NC(=O)[C@H](Cc1ccccc1)NC(=O)[C@@H](N)CO)C(=O)N[C@@H](CCCNC(=N)N)C(=O)N[C@@H](Cc1ccccc1)C(N)=O` [SEQ ID NO 21, SFKLRF-NH2] (H-SFKLRF-NH2; N-terminus assumed), the EC50 came to 3.16 µM. On the same count and under the same terms, the value for `CC[C@H](C)[C@H](NC(=O)[C@H](Cc1ccccc1)NC(=O)[C@@H](N)CO)C(=O)N[C@@H](CC(C)C)C(=O)N[C@@H](CCCNC(=N)N)C(=O)N[C@@H](Cc1ccccc1)C(N)=O` [SEQ ID NO 22, SFILRF-NH2] (H-SFILRF-NH2; N-terminus assumed) was 2.01 µM. Still for that read-out and setting: the figure for `CC(C)C[C@H](NC(=O)[C@H](CCCCN)NC(=O)[C@H](Cc1ccccc1)NC(=O)[C@@H](N)CO)C(=O)N[C@@H](CCCNC(=N)N)C(=O)N[C@@H](Cc1c[nH]cn1)C(N)=O` [SEQ ID NO 23, SFKLRH-NH2] (H-SFKLRH-NH2; N-terminus assumed) is 3.6 µM; for `CC(C)C[C@H](NC(=O)[C@H](CCCCN)NC(=O)[C@H](Cc1ccccc1)NC(=O)[C@@H](N)[C@@H](C)O)C(=O)N[C@@H](CCCNC(=N)N)C(=O)N[C@@H](Cc1ccc(O)cc1)C(N)=O` [SEQ ID NO 24, TFKLRY-NH2] (H-TFKLRY-NH2; N-terminus assumed) it is 3.87 µM.

The term EC50 denotes the concentration needed to bring the measured effect to its halfway point.
